Data from patent publication US20180134683A1, “HETEROCYLCIC COMPOUNDS AS IDH2 INHIBITORS” (TELIGENE LTD., priority 2015, published 2018).
≈ marks a conversion by molar mass, not a printed value. Read-outs that look alike come from different tables or passages of the source.

What was measured:
AXL (R499C) = target: T1, AXL (R499C) (Homo sapiens, UniProt P30530, R499C); experiment: In vitro kinase assay (33P-ATP, P81 filter); format: biochemical; details: for remaining activity at 10 µM: 10 μM compound, 10 μM ATP
T1 sequence (P30530 26-894 R499C): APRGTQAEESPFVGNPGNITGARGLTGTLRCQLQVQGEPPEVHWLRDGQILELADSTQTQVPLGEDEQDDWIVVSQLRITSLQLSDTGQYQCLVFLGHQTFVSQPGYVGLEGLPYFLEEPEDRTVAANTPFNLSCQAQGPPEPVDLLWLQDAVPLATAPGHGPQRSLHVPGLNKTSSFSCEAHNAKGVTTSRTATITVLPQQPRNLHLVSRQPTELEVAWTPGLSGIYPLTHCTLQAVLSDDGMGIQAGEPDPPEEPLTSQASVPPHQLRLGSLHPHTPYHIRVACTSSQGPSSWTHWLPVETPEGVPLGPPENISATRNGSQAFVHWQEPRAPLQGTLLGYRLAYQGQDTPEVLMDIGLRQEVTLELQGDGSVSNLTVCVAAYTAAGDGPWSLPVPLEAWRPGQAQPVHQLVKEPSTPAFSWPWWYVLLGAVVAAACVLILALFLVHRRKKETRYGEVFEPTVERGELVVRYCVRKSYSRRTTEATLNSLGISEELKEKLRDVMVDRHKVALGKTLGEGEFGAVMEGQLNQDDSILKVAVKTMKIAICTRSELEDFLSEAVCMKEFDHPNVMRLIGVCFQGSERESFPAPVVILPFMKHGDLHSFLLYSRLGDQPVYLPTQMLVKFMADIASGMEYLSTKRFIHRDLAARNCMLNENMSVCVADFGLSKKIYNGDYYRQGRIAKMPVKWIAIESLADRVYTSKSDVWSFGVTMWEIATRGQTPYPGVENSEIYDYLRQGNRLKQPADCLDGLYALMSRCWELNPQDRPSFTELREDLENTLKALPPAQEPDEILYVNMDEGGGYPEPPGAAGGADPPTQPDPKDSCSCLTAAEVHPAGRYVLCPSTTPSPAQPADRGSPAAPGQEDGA
Procedure: (§1) These properties may be assesses, for example, using one or more of the procedures set out below: • An in vitro assay which determines the ability of a test compound to inhibit kinases. Conducts the kinase assay with the following condition and procedure: • Reagent: Base Reaction Buffer; 20 mM Hepes (pH 7.5), 10 mM MgCl2, 1 mM EGTA, 0.02% Brij35, 0.02 mg/ml BSA, 0.1 mM Na3VO4, 2 mM DTT, 1% DMSO.
(§2) • 1. Prepare indicated substrate in freshly prepared Base Reaction Buffer. • 2. Deliver any required cofactors to the substrate solution obtained in step 1. • 3. Deliver indicated kinase into the substrate solution prepared in step 2 and gently mix. • 4. Deliver compounds in DMSO into the kinase reaction mixture prepared in step 3. • 5. Deliver ^33P-ATP (specific activity 0.01 μCi/μl final) into the reaction mixture prepared in step 4 to initiate the reaction. • 6. Incubate kinase reaction for 120 min. at room temperature. • 7. Reactions are spotted onto P81 ion exchange paper (Whatman # 3698-915). • 8. Washing filters extensively in 0.75% Phosphoric acid. Compound was tested in single dose duplicate mode at a concentration of 10 μM, reactions were carried out at 10 μM ATP

ALK (L1152 R) = ALK (L1152 R) (Homo sapiens, UniProt Q9UM73, L1152R); experiment: In vitro kinase assay (33P-ATP, P81 filter); format: biochemical; details: for remaining activity at 10 µM: 10 μM compound, 10 μM ATP
Chain of ALK (L1152 R) (Q9UM73 19-1620 L1152R): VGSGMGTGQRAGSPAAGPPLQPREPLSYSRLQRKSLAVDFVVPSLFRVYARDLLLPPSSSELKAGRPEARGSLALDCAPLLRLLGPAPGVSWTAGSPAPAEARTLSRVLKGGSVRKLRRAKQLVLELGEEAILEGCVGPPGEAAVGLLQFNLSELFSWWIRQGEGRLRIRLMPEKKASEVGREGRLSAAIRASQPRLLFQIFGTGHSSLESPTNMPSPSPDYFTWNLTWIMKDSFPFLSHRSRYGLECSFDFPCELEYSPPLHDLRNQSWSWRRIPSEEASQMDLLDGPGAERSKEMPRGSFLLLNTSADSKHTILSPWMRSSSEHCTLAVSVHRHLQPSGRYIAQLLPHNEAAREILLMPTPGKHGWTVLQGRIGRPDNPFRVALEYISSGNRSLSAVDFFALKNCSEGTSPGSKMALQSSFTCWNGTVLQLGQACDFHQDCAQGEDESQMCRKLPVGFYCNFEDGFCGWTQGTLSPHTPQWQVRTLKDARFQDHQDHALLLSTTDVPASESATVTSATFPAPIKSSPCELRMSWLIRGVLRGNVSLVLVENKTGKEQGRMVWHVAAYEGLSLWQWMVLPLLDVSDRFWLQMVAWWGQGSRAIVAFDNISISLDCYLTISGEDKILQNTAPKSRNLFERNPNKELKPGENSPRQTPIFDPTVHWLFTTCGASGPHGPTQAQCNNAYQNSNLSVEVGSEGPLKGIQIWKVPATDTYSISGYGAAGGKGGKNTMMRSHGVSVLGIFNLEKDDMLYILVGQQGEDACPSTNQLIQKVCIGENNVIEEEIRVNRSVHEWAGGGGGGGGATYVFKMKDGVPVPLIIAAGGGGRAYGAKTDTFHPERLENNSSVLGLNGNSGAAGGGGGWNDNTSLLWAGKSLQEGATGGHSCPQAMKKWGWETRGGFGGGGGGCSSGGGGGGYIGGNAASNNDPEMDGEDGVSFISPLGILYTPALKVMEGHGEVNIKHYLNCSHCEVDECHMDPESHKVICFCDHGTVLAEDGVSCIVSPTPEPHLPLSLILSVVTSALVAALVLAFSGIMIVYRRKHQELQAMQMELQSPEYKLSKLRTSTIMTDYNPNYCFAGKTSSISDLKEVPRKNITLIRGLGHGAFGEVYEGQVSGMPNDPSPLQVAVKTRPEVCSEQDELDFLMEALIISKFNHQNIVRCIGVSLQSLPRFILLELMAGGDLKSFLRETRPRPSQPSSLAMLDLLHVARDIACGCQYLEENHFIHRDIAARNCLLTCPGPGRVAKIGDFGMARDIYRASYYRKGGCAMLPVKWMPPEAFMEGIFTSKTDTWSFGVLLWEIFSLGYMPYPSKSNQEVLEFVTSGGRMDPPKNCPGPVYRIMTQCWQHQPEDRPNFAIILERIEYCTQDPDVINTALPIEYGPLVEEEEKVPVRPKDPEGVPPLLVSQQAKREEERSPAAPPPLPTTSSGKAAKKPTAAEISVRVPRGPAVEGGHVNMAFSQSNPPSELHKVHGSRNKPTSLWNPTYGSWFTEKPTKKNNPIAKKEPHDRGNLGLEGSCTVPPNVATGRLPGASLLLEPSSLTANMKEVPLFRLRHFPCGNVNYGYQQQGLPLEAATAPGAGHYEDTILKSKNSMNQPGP
Procedure: as §1, §2

c-MER (A708S) = target: T2, c-MER (A708S) (Homo sapiens, UniProt Q12866, A708S); experiment: In vitro kinase assay (33P-ATP, P81 filter); format: biochemical; details: for remaining activity at 10 µM: 10 μM compound, 10 μM ATP
T2 sequence (Q12866 21-999 A708S): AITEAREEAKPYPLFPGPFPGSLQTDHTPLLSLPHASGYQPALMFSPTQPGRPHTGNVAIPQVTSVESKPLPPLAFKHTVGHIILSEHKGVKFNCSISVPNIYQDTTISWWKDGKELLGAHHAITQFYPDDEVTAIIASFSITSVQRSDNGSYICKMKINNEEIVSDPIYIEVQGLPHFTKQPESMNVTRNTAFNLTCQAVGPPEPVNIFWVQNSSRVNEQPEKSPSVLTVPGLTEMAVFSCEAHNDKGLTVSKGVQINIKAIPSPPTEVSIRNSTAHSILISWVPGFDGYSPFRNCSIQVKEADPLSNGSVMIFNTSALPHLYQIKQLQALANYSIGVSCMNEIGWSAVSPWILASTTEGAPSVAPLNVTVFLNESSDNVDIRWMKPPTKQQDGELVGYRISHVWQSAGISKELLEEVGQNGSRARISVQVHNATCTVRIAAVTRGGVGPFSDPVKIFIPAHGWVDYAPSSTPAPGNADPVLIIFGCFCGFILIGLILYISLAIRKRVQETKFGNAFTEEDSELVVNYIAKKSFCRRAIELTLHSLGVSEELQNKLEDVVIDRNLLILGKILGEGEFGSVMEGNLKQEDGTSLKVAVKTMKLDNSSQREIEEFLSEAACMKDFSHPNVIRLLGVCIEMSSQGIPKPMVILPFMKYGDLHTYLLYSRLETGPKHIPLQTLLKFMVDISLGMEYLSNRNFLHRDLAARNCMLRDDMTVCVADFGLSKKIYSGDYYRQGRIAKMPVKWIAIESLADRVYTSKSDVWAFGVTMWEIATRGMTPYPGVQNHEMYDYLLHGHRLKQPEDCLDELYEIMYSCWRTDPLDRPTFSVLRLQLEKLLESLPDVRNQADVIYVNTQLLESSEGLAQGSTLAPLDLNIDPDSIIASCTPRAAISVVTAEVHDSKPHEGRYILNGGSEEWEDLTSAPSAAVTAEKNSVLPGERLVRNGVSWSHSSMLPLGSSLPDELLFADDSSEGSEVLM
Procedure: as §1, §2

BRAF (G464V) = BRAF (G464V) (Homo sapiens, UniProt P15056, G464V); experiment: In vitro kinase assay (33P-ATP, P81 filter); format: biochemical; details: for remaining activity at 10 µM: 10 μM compound, 10 μM ATP
Chain of BRAF (G464V) (P15056 whole entry G464V): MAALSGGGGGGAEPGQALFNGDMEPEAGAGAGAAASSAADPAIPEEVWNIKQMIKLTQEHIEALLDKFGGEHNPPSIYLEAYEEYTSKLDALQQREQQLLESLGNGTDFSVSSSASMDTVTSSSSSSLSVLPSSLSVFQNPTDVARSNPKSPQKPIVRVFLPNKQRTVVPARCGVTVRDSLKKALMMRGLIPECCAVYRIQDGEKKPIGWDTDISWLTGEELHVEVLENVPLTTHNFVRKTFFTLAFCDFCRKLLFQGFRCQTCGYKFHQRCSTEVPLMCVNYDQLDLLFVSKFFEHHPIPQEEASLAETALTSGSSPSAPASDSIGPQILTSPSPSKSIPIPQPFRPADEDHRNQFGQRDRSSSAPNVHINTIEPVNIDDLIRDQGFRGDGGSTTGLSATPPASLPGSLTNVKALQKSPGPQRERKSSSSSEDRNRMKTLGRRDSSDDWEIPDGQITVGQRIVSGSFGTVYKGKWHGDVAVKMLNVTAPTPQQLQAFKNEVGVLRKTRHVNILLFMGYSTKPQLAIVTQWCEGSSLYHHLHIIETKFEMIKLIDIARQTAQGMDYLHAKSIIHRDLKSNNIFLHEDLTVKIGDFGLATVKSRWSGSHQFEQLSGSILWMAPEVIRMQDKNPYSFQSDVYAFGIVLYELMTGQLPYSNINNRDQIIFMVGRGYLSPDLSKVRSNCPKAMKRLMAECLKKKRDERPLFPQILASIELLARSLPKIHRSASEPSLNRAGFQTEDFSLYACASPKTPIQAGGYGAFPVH
Procedure: as §1, §2

[1] = Pharmacokinetic (PK) profile
[2] = Solubility measurement (HPLC); format: physicochemical; details: for solubility at 30 min: aqueous buffer, thermodynamic from solid, 25° C.
Procedure: Preparation of reference standard solution: 2 mg of Compound 17 or Compound 19 was added individually to 100 mL volumetric flask each. The compound was diluted with acetonitrile to 100 mL.
Preparation of sample solution: 2 mg of Compound 17 or Compound 19 was added individually to 2 mL eppendorf tube (EP), followed by addition of 1 mL of pH 7.0 or 4.0 buffer solution (20 mM). The solution was shook for 2 minutes and left for 30 minutes at 25° C. After standing for 30 minutes, precipitate was formed in the bottom of the EP. The solutions was filtered through 0.2 um membrane filter, and then diluted by 50 times with water.
The standard and sample solutions were injected into the HPLC on a Shim-Pack CLC-ODS C18 column (150mm×6.0mm, 5um) with the same volume. The mobile phase consisted of acetonitrile with 2% trichloromethane−20 mM KH2PO4 buffer (pH=7.0) at a flow rate of 1 mL/minutes (40:60). The detection wavelength is at 264 nm. Calculation: solubility of sample=the concentration of standard×Area of sample×50 /Area of standard.

IDH2 R140Q = target: T3, IDH2 R140Q (Homo sapiens, UniProt P48735, R140Q); experiment: IDH2 enzymatic assay (cofactor depletion assay); format: biochemical
T3 sequence (P48735 40-452 R140Q): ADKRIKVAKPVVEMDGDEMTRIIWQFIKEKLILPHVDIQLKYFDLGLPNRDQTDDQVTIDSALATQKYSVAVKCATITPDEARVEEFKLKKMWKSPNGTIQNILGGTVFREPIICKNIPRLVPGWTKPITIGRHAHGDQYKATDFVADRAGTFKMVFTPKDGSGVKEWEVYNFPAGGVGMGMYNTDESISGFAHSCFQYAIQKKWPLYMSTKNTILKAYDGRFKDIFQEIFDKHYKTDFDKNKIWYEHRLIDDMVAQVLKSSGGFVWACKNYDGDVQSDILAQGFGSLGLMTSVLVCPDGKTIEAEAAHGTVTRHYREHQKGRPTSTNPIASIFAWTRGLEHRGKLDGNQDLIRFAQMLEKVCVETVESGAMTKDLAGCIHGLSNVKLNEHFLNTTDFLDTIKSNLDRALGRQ
Procedure: Enzymatic Assay. Compounds were assayed for IDH2 R140Q inhibitory activity through a cofactor depletion assay. […] The reaction was terminated by the addition of a second enzyme, diaphorase, and a corresponding substrate, resazurin. Diaphorase reduces resazurin to the highly fluorescent resorufin with the concomitant oxidation of NADPH to NADP, both halting the IDH2 reaction by depleting the available cofactor pool and facilitating quantitation of the amount of cofactor remaining after a specific time period through quantitative production of an easily detected fluorophore. […] The compound was then incubated for one hour at room temperature with the enzyme; before starting the IDH2 reaction with the addition of 10 μl of substrate mix containing 50 μM NADPH and 6.3 mM a-KG in the buffer described above.

[3] = duplicate 1, read-out: % Enzyme Activity (relative to DMSO controls) Data 1
[4] = duplicate 2, read-out: % Enzyme Activity (relative to DMSO controls) Data 2
[5] = pH 4.0 buffer solution (20 mM), read-out: Solubility at pH 4.0
[6] = pH 7.0 buffer solution (20 mM), read-out: Solubility at pH 7.0
[7] = IDH2 R140Q, one hour preincubation, 60 minutes reaction, read-out: Enzyme Inhibition IDH2

Row | remaining activity at 10 µM (AXL (R499C); [3]) | remaining activity at 10 µM (AXL (R499C); [4]) | activity against kinase (in words) (AXL (R499C); panel of kinases) | remaining activity at 10 µM (ALK (L1152 R); [3]) | remaining activity at 10 µM (ALK (L1152 R); [4]) | activity against kinase (in words) (ALK (L1152 R); panel of kinases) | remaining activity at 10 µM (c-MER (A708S); [3]) | remaining activity at 10 µM (c-MER (A708S); [4]) | activity against kinase (in words) (c-MER (A708S); panel of kinases) | remaining activity at 10 µM (BRAF (G464V); [3]) | remaining activity at 10 µM (BRAF (G464V); [4]) | activity against kinase (in words) (BRAF (G464V); panel of kinases) | pharmacokinetic (PK) profile compared with Compound 19 (in words) [1] | solubility compared with Compound 19 (in words) ([2]; pH=4.0) | solubility compared with Compound 19 (in words) ([2]; pH=7.0) | IC50 (IDH2 R140Q; [7]) | SMILES | safety profile compared with Compound 19 (in words) (Safety profile) | solubility at 30 min [2, 5] | solubility at 30 min [2, 6] | IC50 (IDH2 R140Q)
1 | 58.2% | 58.1% | active | 79.2% | 78.9% | active | 79.8% | 79.5% | active | 69.9% | 68.9% | active | better pharmacokinecitc (PK) | much higher solubility | better solubility | 0.262 µM | CN1CCN(c2nc(Nc3ccnc(C(F)(F)F)c3)nc(-c3cccc(C(F)(F)F)n3)n2)CC1 [Compound 17, 4-(4-methylpiperazin-1-yl)-6-(6-(trifluoromethyl)pyridin-2-yl)-N-(2-(trifluoromethyl)pyridin-4-yl)-1,3,5-triazin-2-amine] | favorable safety profile | 123 µg/mL (≈ 254 µM) | 0.276 µg/mL (≈ 0.57 µM) | 
2 |  |  |  |  |  |  |  |  |  |  |  |  |  |  |  | 0.0122 µM | CN(C)c1nc(Nc2ccnc(C(F)(F)F)c2)nc(-c2cccc(C(F)(F)F)n2)n1 [Compound 18, N^2,N^2-dimethyl-6-(6-(trifluoromethyl)pyridin-2-yl)-N^4-(2-(trifluoromethyl)pyridin-4-yl)-1,3,5-triazine-2,4-diamine] |  |  |  | 
3 |  |  |  |  |  |  |  |  |  |  |  |  |  |  |  |  | CC(C)(O)CNc1nc(Nc2ccnc(C(F)(F)F)c2)nc(-c2cccc(C(F)(F)F)n2)n1 [Compound 19, reference compound] |  | 1.59 µg/mL (≈ 3.36 µM) | 0.109 µg/mL (≈ 0.23 µM) | 0.401 µM
